Laboratory results reported in patent US5262537A, “Derivatives of 4,5,6,7-tetrahydroimidazo-[4,5-c]pyridinyl-6-carboxylic acid” (priority 1993, dated 1993).
Where a name gives a salt, the structure may show the parent alone. Read-outs that look alike come from different tables or passages of the source.

Tests used:
[1] = test system: Ferret; assay: Cisplatin Ferret Assay--Antiemetic Screening; format: in vivo, Male ferrets; details: for inhibition in vivo at 0.1 mg/kg / ED50: Mustela putorius, iv, 4 h; for inhibition in vivo at 0.1 mg/kg: read-out: Ferret Cisplatin Test % Prot, 0.1 mg/Kg; for ED50: read-out: Ferret Cisplatin Test ED50
Method: Male ferrets (castrated, descented, 1-2 kg) were purchased from Triple F Farms, Syre, Pa. Ferrets were housed four in a cage with a 12 hour light cycle and were fed ad libitum with Ralston Purina Cat Chow. Each ferret was used unfasted for the assay after a minimum of a 24 hour acclimation time in animal facility.
Ferret Preparation. Each ferret was anesthetized with 5% isoflurane-O2in a 20 gallon aquarium for 2 to 5 minutes. After removal of the anesthetic gas, the animals were removed and weighed. Injections were made into the dorsal front paw vein using a tourniquet and a 1 ml tuberculin syringe with a 25 g needle while the animal was maintained under anesthesia using a small nose cone delivering 5% isoflurane-O2. Cisplatin was injected using a 3 ml or 5 ml syringe in the opposite paw from the study compound or saline. Recovery time from anaesthesia was 5 to 8 minutes.
Drug Preparation. Cisplatin bulk powder was weighed and dissolved in normal saline at 75° C. to provide a 5 mg/ml solution (90 mg was placed in a scintillation vial and qs with 18 ml saline). The solution was stirred and maintained at 40° C. until ready for use. The study drug was weighed and dissolved in normal saline at room temperature to provide a 1 mg/ml solution (10 mg was placed in a scintillation vial and qs with 10 ml saline). Suspensions were heated to 40° C. to bring the study compound into solution. Compounds not soluble under these conditions were not assayed.
Assay. Cisplatin was injected i.v. at 10 mg/kg into twelve anesthetized ferrets daily at time zero. Normal saline (0.5 ml) or the study compound (0.1 or 1.0 mg/kg) was injected 30 minutes later in groups of three anesthetized ferrets. Order of treatment and treatment dose was selected at random, with the remaining treatment dose assayed in the next experiment.
Experimental Observations and Data Collection. Ferrets were viewed individually. The time and number of emetic episodes were recorded for four hours. Zero time was equivalent to the time of cisplatin injection. […] Retches were recorded but not counted. The total number of episodes for each of the four groups of three ferrets (+/-S.E.) was averaged and the effect of treatment (% protection) was calculated as the percent reduction of emetic episodes compared to controls. [formula]
Percent protection values were determined from experimental controls. Experimental controls were those obtained from the day of the experiment. Onset times of the first episode were averaged and recorded for each group. Prodromal signs (lip licking, slit eyes, head shaking, salivation, scratching, clawing, walking backward, sedation, urination, and defecation) were also averaged and recorded.

[2] = target: T1, 5-HT3 (Rattus norvegicus, UniProt P35563); assay: biochemical; format: binding, Male Sprague-Dawley rats
T1 sequence (P35563 24-483): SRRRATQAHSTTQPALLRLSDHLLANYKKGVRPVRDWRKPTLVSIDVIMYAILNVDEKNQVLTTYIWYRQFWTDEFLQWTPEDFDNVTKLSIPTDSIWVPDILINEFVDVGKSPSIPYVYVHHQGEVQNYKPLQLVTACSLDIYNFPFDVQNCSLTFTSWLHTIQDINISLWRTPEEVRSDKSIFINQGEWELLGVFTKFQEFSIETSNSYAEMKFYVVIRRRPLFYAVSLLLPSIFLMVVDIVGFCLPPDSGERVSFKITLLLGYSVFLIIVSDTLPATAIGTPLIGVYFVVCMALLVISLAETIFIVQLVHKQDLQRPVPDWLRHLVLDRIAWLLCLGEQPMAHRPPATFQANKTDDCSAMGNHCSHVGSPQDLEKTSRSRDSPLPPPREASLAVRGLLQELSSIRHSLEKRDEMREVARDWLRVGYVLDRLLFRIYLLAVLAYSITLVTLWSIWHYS
Method: A number of compounds in accordance with the present invention were tested for their 5-HT3 and D2 binding affinities in accord with the following procedures.
Male Sprague-Dawley rats (175-220 g) were sacrificed by decapitation and their brains removed rapidly. The entorhinal cortex was used for the 5-HT3 (5-hydroxytryptamine) binding assay and the remainder of the brain, minus the brain stem and cerebellum, was used for the D2 (dopamine) binding assay. The entorhinal cortex was harvested and prepared on the day of the assay.
The entorhinal cortex was homogenized in 20 volumes of cold 50 mM HEPES buffer, pH 7.4, while the remaining brain tissue was homogenized in 20 volumes of cold 50 mM Tris, pH 7.4. The homogenates were centrifuged at 4800×g for 15 minutes at 5° C. and the supernatants decanted. Pellets were resuspended in the original volume of HEPES or Tris. Homogenates were centrifuged and the supernatants decanted. Pellets were resuspended in the same volume of HEPES or Tris and incubated at 37° C. for 45 minutes to remove endogenous neurotransmitters. Homogenates were centrifuged and the supernatants were decanted. Pellets for D2 assays were stored at -50° C. until the day of the assay. The pellets for the 5-HT3 assay (entorhinal cortex) were resuspended in the appropriate amount of HEPES buffer and used promptly. Modifications of published assays for [^3 H]GR65630 (Kilpatrick et al., Nature: 330, 746-748 (1987)) and [^3 H]raclopride (Dewar et al., J. Pharmacol. Exp. Ther.: 250, 696-706 (1989) and Lidow et al., Proc. Natl. Acad. Sci. USA: 86, 6412-6416 (1989)) were used for the 5-HT3 and D2 binding assays, respectively.
Briefly, 0.25 ml of homogenate was incubated with either 0.2 nM of [^3 H]GR65630 or 1.0 nM of [^3 H]raclopride in a final volume of 0.5 ml. D2 binding also requires sodium chloride and potassium chloride (120 mM and 5 mM, final concentration, respectively). In the 5-HT3 assay, non-specific binding was defined in the presence of 100 uM quipazine. In the D2 assay, non-specific binding was defined in the presence of 100 uM of (+/-) sulpiride. Both assays were incubated at room temperature; [^3 H]GR65630 for 40 minutes and [^3 H]raclopride for 60 minutes. Test compounds (0.1 ml) were added to incubates where appropriate. Bound ligand was separated from free ligand by filtration and quantified using liquid scintillation spectrophotometry. IC50 values were calculate for all test compounds.

[3] = 0.1 mg/kg i.v., 30 minutes after cisplatin 10 mg/kg i.v., percent reduction of emetic episodes vs controls, four hours
[4] = i.v., 30 minutes after cisplatin 10 mg/kg i.v., emetic episodes over four hours
[5] = 0.2 nM [3H]GR65630, rat entorhinal cortex, 40 minutes, room temperature, read-out: 5-HT3 IC50

| SMILES | IC50 [2, 5] | inhibition in vivo at 0.1 mg/kg [1, 3] | ED50 [1, 4] | Ferret Cisplatin Test % Prot, 0.1 mg/Kg [1, 3] | inhibition in vivo at 0.1 mg/kg [1] | IC50 [2] | ED50 [1] |
| --- | --- | --- | --- | --- | --- | --- | --- |
| CN1Cc2nc[nH]c2C[C@H]1C(=O)Nc1ccc(F)c(F)c1F [Compd 35] | 160 nM | 20% | 0.19 mg/kg | – | – | – | – |
| COc1ccc(Cl)cc1NC(=O)[C@H]1Cc2[nH]cnc2CN1C [Compd 2] | 10 nM | 31% | 0.4 mg/kg | – | – | – | – |
| CN1Cc2nc[nH]c2C[C@H]1C(=O)Nc1c(F)cccc1F [Compd 34] | 612 nM | 59% | 0.15 mg/kg | – | – | – | – |
| CN1Cc2nc[nH]c2C[C@H]1C(=O)c1ccccc1 [Compd 38] | – | – | – | – | 30% | 48.4 nM | – |
| COc1ccccc1NC(=O)[C@@H]1Cc2[nH]cnc2CN1 [Compd 14, (S)-6-(2-methoxyphenyl)aminocarbonyl-4,5,6,7-tetrahydroimidazo[4,5-c]pyridine] | 8.53 nM | 48% | 0.062 mg/kg | – | – | – | – |
| COc1ccccc1NC(=O)[C@@H]1Cc2[nH]cnc2CN1C(C)=O [Compd 47, (S)-5-acetyl-6-(2-methoxyphenylaminocarbonyl)-4,5,6,7-tetrahydroimidazo[4,5-c]pyridine] | – | 81% | 0.044 mg/kg | – | – | – | – |
| CN1Cc2nc[nH]c2C[C@H]1C(=O)Nc1ccccc1F [Compd 29] | 335 nM | 88% | 0.024 mg/kg | – | – | – | – |
| COc1ccccc1C(=O)[C@@H]1Cc2[nH]cnc2CN1C [Compd 43] | – | – | – | – | 41% | 2380 nM | – |
| CN1Cc2nc[nH]c2C[C@H]1C(=O)c1cc2ccccc2s1 [Compd 32, 6-(2-benzo[b]thiophenylcarbonyl)-5-methyl-4,5,6,7-tetrahydroimidazo[4,5-c]pyridine] | 234 nM | – | – | – | 41% | – | 0.11 mg/kg |
| CN1Cc2nc[nH]c2C[C@@H]1C(=O)Nc1ccccc1 [Compd 9] | 57.2 nM | 26% | 0.33 mg/kg | – | – | – | – |
| CCN(CC)CCNC(=O)c1cc(Cl)c(N)cc1OC [Metaclopramide, reference compound] | – | 17% | 4.08 mg/kg | – | – | 514 nM | – |
| CC1(C)N[C@H](C(=O)Nc2ccccc2Oc2ccccc2)Cc2[nH]cnc21 [Compd 49, (S)-6-(2-phenoxy-phenylaminocarbonyl)-4,4-dimethyl-4,5,6,7-tetrahydroimidazo[4,5-c]pyridine] | 8.55 nM | 76% | 0.022 mg/kg | – | – | – | – |
| Cc1nccn1CC1CCc2c(c3ccccc3n2C)C1=O (stereo not shown) [Ondansetron, reference compound] | – | 77% | 0.041 mg/kg | – | – | – | – |
| COc1ccc(OC)c(NC(=O)[C@@H]2Cc3nc[nH]c3CN2C)c1 [Compd 30, (S)-6-(2,5-dimethoxyphenylaminocarbonyl)-5-methyl-4,5,6,7-tetrahydoimidazo[4,5-c]pyridine dihydrochloride] | 69.7 nM | 5% | – | – | – | – | – |
| CC(=O)c1ccccc1NC(=O)[C@H]1Cc2[nH]cnc2CN1C [Compd 5] | 4.26 nM | 22% | 0.123 mg/kg | – | – | – | – |
| CN1Cc2nc[nH]c2C[C@H]1C(=O)Nc1ccccc1NC(=O)c1ccccc1 [Compd 26] | 289 nM | 0% | – | – | – | – | – |
| COc1ccc2oc(C(=O)[C@@H]3Cc4[nH]cnc4CN3C)cc2c1 [Compd 41] | 12900 nM | – | – | – | 9% | – | – |
| CN1Cc2nc[nH]c2C[C@H]1C(=O)Nc1cc(O)ccc1O [Compd 40, (S)-6-(2,5-dihydroxyphenylaminocarbonyl)-5-methyl-4,5,6,7-tetrahydroimidazo[4,5-c]pyridine dihydrobromide] | 45.9 nM | 0% | – | – | – | – | – |
| CN1Cc2nc[nH]c2C[C@H]1C(=O)c1cccs1 [Compd 28] | 648 nM | – | – | – | 0% | – | – |
| CN1C2CCCC1CC(NC(=O)c1nn(C)c3ccccc13)C2 (stereo not shown) [Granisetron, reference compound] | – | 71% | 0.03 mg/kg | – | – | – | – |
| COC(=O)c1ccccc1NC(=O)[C@H]1Cc2[nH]cnc2CN1C [Compd 4] | 12.1 nM | 33% | 0.1 mg/kg | – | – | – | – |
| COc1ccccc1NC(=O)[C@@H]1Cc2[nH]cnc2CN1C [Compd 6] | 4.86 nM | 77% | 0.023 mg/kg | – | – | – | – |
| CN1Cc2nc[nH]c2C[C@H]1C(=O)Nc1cccc(F)c1F [Compd 31] | 644 nM | 91% | 0.068 mg/kg | – | – | – | – |

Continued by falling IC50 [2, 5], values first:

| IC50 [2, 5] | SMILES | inhibition in vivo at 0.1 mg/kg [1, 3] | ED50 [1, 4] | Ferret Cisplatin Test % Prot, 0.1 mg/Kg [1, 3] | inhibition in vivo at 0.1 mg/kg [1] | IC50 [2] | ED50 [1] |
| --- | --- | --- | --- | --- | --- | --- | --- |
| 3490 nM | CN1Cc2nc[nH]c2C[C@H]1C(=O)Nc1ccccc1N [Compd 42] | 39% | 0.23 mg/kg | – | – | – | – |
| 158 nM | CC(=O)c1ccccc1NC(=O)[C@@H]1Cc2[nH]cnc2C(C)(C)N1 [Compd 48] | 100% | 0.0098 mg/kg | – | – | – | – |
| 62.4 nM | CN1Cc2nc[nH]c2C[C@H]1C(=O)Nc1ccccc1O [Compd 15, (S)-6-(2-hydroxyphenylaminocarbonyl)-5-methyl-4,5,6,7-tetrahydroimidazo[4,5-c]pyridine] | 99% | 0.007 mg/kg | – | – | – | – |
| 47.6 nM | COc1ccccc1NC(=O)[C@H]1Cc2[nH]cnc2CN1C [Compd 3] | 9% | 2.08 mg/kg | – | – | – | – |
| 47.2 nM | CN1[C@H](C(=O)Nc2ccccc2O)Cc2[nH]cnc2C1(C)C [Compd 24] | 48% | 0.025 mg/kg | – | – | – | – |
| 29 nM | COC(=O)c1ccccc1NC(=O)[C@@H]1Cc2[nH]cnc2CN1C [Compd 16] | 42% | 0.01 mg/kg | – | – | – | – |
| 26.7 nM | CN1Cc2nc[nH]c2C[C@H]1C(=O)Nc1ccccc1Cl [Compd 37] | 42% | 0.065 mg/kg | – | – | – | – |
| 21.7 nM | COc1ccccc1NC(=O)[C@@H]1Cc2nc[nH]c2C(C)(C)N1 [Compd 20] | – | 0.008 mg/kg | 72% | – | – | – |
| 17.6 nM | CCN1Cc2nc[nH]c2C[C@H]1C(=O)Nc1ccccc1O [Compd 18] | 46% | 0.16 mg/kg | – | – | – | – |
| 15.4 nM | CCOc1ccccc1NC(=O)[C@@H]1Cc2[nH]cnc2CN1C [Compd 17] | 58% | 0.2 mg/kg | – | – | – | – |
| 10.9 nM | CN1Cc2nc[nH]c2C[C@@H]1C(=O)Nc1ccccc1O [Compd 1] | 73% | 0.063 mg/kg | – | – | – | – |
| 10.4 nM | COc1ccccc1NC(=O)[C@H]1Cc2[nH]cnc2CN1 [Compd 8] | 62% | – | – | – | – | – |
| 9.52 nM | CN1Cc2nc[nH]c2C[C@H]1C(=O)Nc1ccccc1Oc1cccc(C(F)(F)F)c1 [Compd 44] | 1% | 0.26 mg/kg | – | – | – | – |
| 8.19 nM | CN1Cc2nc[nH]c2C[C@@H]1C(=O)Nc1ccccc1Oc1ccccc1 [Compd 11] | 15% | 0.47 mg/kg | – | – | – | – |
| 7.09 nM | CN1Cc2nc[nH]c2C[C@H]1C(=O)Nc1ccccc1Oc1cccc(F)c1 [Compd 45] | 67% | 0.042 mg/kg | – | – | – | – |
| 6.26 nM | COc1ccc(Cl)cc1NC(=O)[C@@H]1Cc2[nH]cnc2CN1C [Compd 7] | 57% | 0.14 mg/kg | – | – | – | – |
| 4.14 nM | CCOc1ccccc1NC(=O)[C@H]1Cc2[nH]cnc2CN1C [Compd 10] | 29% | 0.31 mg/kg | – | – | – | – |
